The record followed here is patent US20240390298A1, “CYCLOHEXYL BETA-HYDROXY ALKYL AMINES AND MEDICAL USES THEREOF” (ATROGI AB, priority 2021, published 2024).

Where a name gives a salt, the structure may show the parent alone.

For assay [1], the system named is L6-myotubes. Nature of the assay: Glucose uptake in differentiated L6-myotubes (3H-2-deoxyglucose), compared to isoproterenol. The assay is classed as cell-based. The following applies: agonist 1×10^−5 M, 50 nM 3H-2-deoxyglucose; for Emax at 10 µM: read-out: Biological example 1: glucose uptake, activity compared to that of isoproterenol. A digest of the protocol:
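Serum-starved differentiated L6 myotubes stimulated with agonist at 1×10^−5 M for 1 h 40 min, re-dosed in glucose-free medium for 20 min, then given 50 nM ^3H-2-deoxyglucose for 10 min. Uptake read by β-counting of NaOH lysates; activity expressed relative to isoproterenol.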

Assay [2] relates to L6-myotubes. Nature of the assay: Measurement of intracellular cAMP levels in differentiated L6 cells (alpha screen cAMP kit), compared to isoproterenol. It is filed as cell-based. Particulars: Rattus norvegicus, L6, 0.25 h, agonist 1×10^−5 M, 15 min, read-out: Biological example 2: intracellular cAMP levels, activity compared to that of isoproterenol. The procedure, abridged:
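L6 myoblasts were differentiated into myotubes over 7 days in 2% FBS, then serum-starved overnight. Agonist at 1×10^−5 M final was applied for 15 min in HBSS with 1% BSA, 5 mM HEPES and 1 mM IBMX, pH 7.4. After ethanol extraction and lysis, cAMP was quantified by AlphaScreen, with activity expressed relative to isoproterenol.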

Turning to `O[C@@H](CNCCC[C@H]1CC[C@H](O)CC1)c1cncc(F)c1` [Example 58, (1S,4r)-4-(3-(((R)-2-(5-Fluoropyridin-3-yl)-2-hydroxyethyl)amino)-propyl)cyclohexan-1-ol], the Emax at 10 µM with L6-myotubes [1] was 25 to 50%; in the assay on L6-myotubes [2] it was less than 25%.
`O[C@@H](CNCCC[C@H]1CC[C@@H](O)CC1)c1cncc(F)c1` [Example 60, (1R,4s)-4-(3-(((R)-2-(5-Fluoropyridin-3-yl)-2-hydroxyethyl)amino)propyl)-cyclohexan-1-ol]: the “Biological example 1: glucose uptake, activity compared to that of isoproterenol” value in the assay on L6-myotubes [1] is “+ +”. Further, the Emax at 10 µM in the assay with L6-myotubes [2] is less than 25%.
In the case of `CC(=O)N[C@H]1CC[C@H](CC(C)(C)NC[C@H](O)c2cncc(F)c2)CC1` [Example 87, N-((1R,4r)-4-(2-(((R)-2-(5-Fluoropyridin-3-yl)-2-hydroxyethyl)amino)-2-methylpropyl)cyclohexyl)acetamide], the “Biological example 1: glucose uptake, activity compared to that of isoproterenol” value with L6-myotubes [1] is reported as “+ + +”. Besides, the Emax at 10 µM in the assay on L6-myotubes [2] was less than 25%.
On to `COC1CCC(CCCNC[C@H](O)c2cncc(F)c2)CC1` (stereo partly drawn) [Example 18, (R)-1-(5-Fluoropyridin-3-yl)-2-((3-((1r,4S)-4-methoxycyclohexyl)propyl)-amino)ethan-1-ol], for which the Emax at 10 µM in the assay on L6-myotubes [1] and in the assay on L6-myotubes [2] was less than 25% throughout.
`O[C@@H](CNC[C@H]1CC[C@@H](O)CC1)c1cccc(F)c1` [Example 26, (1S,4s)-4-((((R)-2-(3-Fluorophenyl)-2-hydroxyethyl)amino)methyl)-cyclohexan-1-ol]: the results for the Emax at 10 µM in the assay with L6-myotubes [1] and in the assay with L6-myotubes [2] were 25 to 50% and less than 25%, respectively.
In the case of `CC(C)(C[C@H]1CC[C@@H](NS(C)(=O)=O)CC1)NC[C@@H](O)c1cccc(C#N)n1` [Example 138, N-((1S,4s)-4-(2-(((R)-2-(6-Cyanopyridin-2-yl)-2-hydroxyethyl)amino)-2-methylpropyl)cyclohexyl)methanesulfonamide], in the assay on L6-myotubes [1], the “Biological example 1: glucose uptake, activity compared to that of isoproterenol” value was “+ +”. Further, the Emax at 10 µM in the assay on L6-myotubes [2] was less than 25%.
For the compound `CC(C)(CC[C@H]1CC[C@@H](O)CC1)NC[C@H](O)c1cncc(F)c1` [Example 66, (1R,4s)-4-(3-(((R)-2-(5-Fluoropyridin-3-yl)-2-hydroxyethyl)amino)-3-methylbutyl)cyclohexan-1-ol dihydrochloride], in the assay on L6-myotubes [1], the “Biological example 1: glucose uptake, activity compared to that of isoproterenol” value was “+ +”. Besides, in the assay on L6-myotubes [2], the Emax at 10 µM is less than 25%.
The matching figures for `CCOC(=O)CO[C@H]1CC[C@@H](C(C)(C)NC[C@H](O)c2cccc(F)c2)CC1` [Example 124, Ethyl 2-(((1S,4s)-4-(2-(((R)-2-(3-fluorophenyl)-2-hydroxyethyl)amino-)propan-2-yl)cyclohexyl)oxy)acetate]: “+ +” and less than 25%.
For the compound `CC(C)(C[C@H]1CC[C@@H](NC(=O)OC(C)(C)C)CC1)NC[C@H](O)c1cncc(F)c1` [Example 174, tert-Butyl ((1S,4s)-4-(2-(((R)-2-(5-fluoropyridin-3-yl)-2-hydroxyethyl)-amino)-2-methylpropyl)cyclohexyl)carbamate], the “Biological example 1: glucose uptake, activity compared to that of isoproterenol” value in the assay on L6-myotubes [1] is “+ + +”. For the same compound, in the assay with L6-myotubes [2], the Emax at 10 µM is less than 25%.
The matching figures for `CC(C)(C[C@H]1CC[C@H](NC(=O)OC(C)(C)C)CC1)NC[C@H](O)c1cccc(F)c1` [Example 153, tert-Butyl ((1R,4r)-4-(2-(((R)-2-(3-fluorophenyl)-2-hydroxyethyl)amino)-2-methylpropyl)cyclohexyl)carbamate]: “+ + +” and 25 to 50%.
Turning to `CC(C)(C[C@H]1CC[C@@H](C#N)CC1)NC[C@H](O)c1cccc(F)c1` [Example 129, (1S,4s)-4-(2-(((R)-2-(3-Fluorophenyl)-2-hydroxyethyl)amino)-2-methylpropyl)cyclohexane-1-carbonitrile], in the assay on L6-myotubes [1], the “Biological example 1: glucose uptake, activity compared to that of isoproterenol” value is listed as “+ + +”. The Emax at 10 µM with L6-myotubes [2] was in the range of 25 to 50%.
As to `CC(C)(NC[C@H](O)c1cccc(F)c1)[C@H]1CC[C@H](O)CC1` [Example 38, (1R,4r)-4-(2-(((R)-2-(3-Fluorophenyl)-2-hydroxyethyl)amino)propan-2-yl)cyclohexan-1-ol], in the assay on L6-myotubes [1], the “Biological example 1: glucose uptake, activity compared to that of isoproterenol” value is “+ +”. For the same compound, the Emax at 10 µM in the assay with L6-myotubes [2] was less than 25%.
As to `CC(C)(C[C@H]1CC[C@H](N)CC1)NC[C@@H](O)c1cccc(C#N)n1` [Example 130, 6-((R)-2-((1-((1r,4R)-4-Aminocyclohexyl)-2-methylpropan-2-yl)amino)-1-hydroxyethyl)picolinonitrile trihydrochloride], the “Biological example 1: glucose uptake, activity compared to that of isoproterenol” value in the assay on L6-myotubes [1] is recorded as “+ +”. In the assay on L6-myotubes [2], the Emax at 10 µM was less than 25%.
Take `CC(=O)N[C@H]1CC[C@@H](CC(C)(C)NC[C@H](O)c2cccc(C(F)(F)F)n2)CC1` [Example 149, N-((1R,4s)-4-(2-(((S)-2-Hydroxy-2-(6-(trifluoromethyl)pyridin-2-yl)-ethyl)amino)-2-methylpropyl)cyclohexyl)acetamide dihydrochloride]: the “Biological example 1: glucose uptake, activity compared to that of isoproterenol” value with L6-myotubes [1] is “+ +”. Besides, the Emax at 10 µM with L6-myotubes [2] was less than 25%.
In the case of `CC(C)(C[C@H]1CC[C@H](NS(C)(=O)=O)CC1)NC[C@@H](O)c1cccc(C#N)n1` [Example 136, N-((1R,4r)-4-(2-(((R)-2-(6-Cyanopyridin-2-yl)-2-hydroxyethyl)amino)-2-methylpropyl)cyclohexyl)methanesulfonamide], the “Biological example 1: glucose uptake, activity compared to that of isoproterenol” value in the assay with L6-myotubes [1] was “+ +”. Besides, the Emax at 10 µM in the assay with L6-myotubes [2] was less than 25%.
As for `COC(=O)[C@H]1CC[C@H](C(C)(C)NC[C@H](O)c2cncc(F)c2)CC1` [Example 100, Methyl (1R,4r)-4-(2-(((R)-2-(5-fluoropyridin-3-yl)-2-hydroxyethyl)amino)-propan-2-yl)cyclohexane-1-carboxylate], the “Biological example 1: glucose uptake, activity compared to that of isoproterenol” value in the assay with L6-myotubes [1] is given as “+ + +”. Besides, the Emax at 10 µM in the assay with L6-myotubes [2] was less than 25%.
The matching figures for `CC(C)(C[C@H]1CC[C@H](NS(C)(=O)=O)CC1)NC[C@H](O)c1cncc(F)c1` [Example 89, N-((1R,4r)-4-(2-(((R)-2-(5-Fluoropyridin-3-yl)-2-hydroxyethyl)amino)-2-methylpropyl)cyclohexyl)methanesulfonamide]: “+ + +” and less than 25%.
The matching figures for `CC(C)(CC[C@H]1CC[C@@H](O)CC1)NC[C@H](O)c1cccc(F)c1` [Example 64, (1R,4s)-4-(3-(((R)-2-(3-Fluorophenyl)-2-hydroxyethyl)amino)-3-methyl-butyl)cyclohexan-1-ol]: “+ + +” and less than 25%.
The matching figures for `CC(=O)N[C@H]1CC[C@H](CCC(C)(C)NC[C@H](O)c2cncc(F)c2)CC1` [Example 93, N-((1S,4r)-4-(3-(((R)-2-(5-Fluoropyridin-3-yl)-2-hydroxyethyl)amino)-3-methylbutyl)cyclohexyl)acetamide]: “+ + +” and less than 25%.
Regarding `CN([C@H]1CC[C@H](CC(C)(C)NC[C@H](O)c2cccc(F)c2)CC1)S(C)(=O)=O.Cl` [Example 179, N-((1R,4r)-4-(2-(((R)-2-(3-Fluorophenyl)-2-hydroxyethyl)amino)-2-methylpropyl)cyclohexyl)-N-methylmethanesulfonamide hydrochloride], the “Biological example 1: glucose uptake, activity compared to that of isoproterenol” value in the assay with L6-myotubes [1] is given as “+ +”. Moreover, the Emax at 10 µM with L6-myotubes [2] was less than 25%.
Turning to `CC(C)(C[C@H]1CC[C@H](O)CC1)NC[C@H](O)c1cccc(F)c1.Cl` [Example 51, (1R,4r)-4-(2-(((R)-2-(3-Fluorophenyl)-2-hydroxyethyl)amino)-2-methylpropyl)cyclohexan-1-ol hydrochloride], the “Biological example 1: glucose uptake, activity compared to that of isoproterenol” value with L6-myotubes [1] is “+ + +”. In addition, in the assay on L6-myotubes [2], the Emax at 10 µM is less than 25%.
The corresponding values for `CC(C)(NC[C@H](O)c1cncc(F)c1)[C@H]1CC[C@H](OCC(=O)O)CC1` [Example 127, 2-(((1R,4r)-4-(2-(((R)-2-(5-Fluoropyridin-3-yl)-2-hydroxyethyl)amino)-propan-2-yl)cyclohexyl)oxy)acetic acid] are “+ +” and less than 25%.
On to `CCOC(=O)CO[C@H]1CC[C@H](C(C)(C)NC[C@H](O)c2cccc(F)c2)CC1` [Example 123, Ethyl 2-(((1R,4r)-4-(2-(((R)-2-(3-fluorophenyl)-2-hydroxyethyl)amino)-propan-2-yl)cyclohexyl)oxy)acetate], for which, in the assay with L6-myotubes [1], the “Biological example 1: glucose uptake, activity compared to that of isoproterenol” value is “+ + +”. Further, the Emax at 10 µM in the assay with L6-myotubes [2] is less than 25%.
The corresponding values for `CC(=O)N[C@H]1CC[C@@H](CNC[C@H](O)c2cccc(F)c2)CC1` [Example 73, N-((1S,4s)-4-((((R)-2-(3-Fluorophenyl)-2-hydroxyethyl)amino)-methyl)cyclohexyl)acetamide] are “+ +” and less than 25%.
Regarding `CC(C)(C[C@H]1CC[C@@H](N)CC1)NC[C@@H](O)c1cccc(C#N)n1` [Example 131, 6-((R)-2-((1-((1s,4S)-4-Aminocyclohexyl)-2-methylpropan-2-yl)amino)-1-hydroxyethyl)picolinonitrile trihydrochloride], in the assay on L6-myotubes [1], the “Biological example 1: glucose uptake, activity compared to that of isoproterenol” value is recorded as “+ +”. For the same compound, the Emax at 10 µM with L6-myotubes [2] was less than 25%.
As for `O[C@@H](CNCC[C@H]1CC[C@H](O)CC1)c1cccc(F)c1` [Example 46, (1R,4r)-4-(2-(((R)-2-(3-Fluorophenyl)-2-hydroxyethyl)amino)ethyl)-cyclohexan-1-ol], the Emax at 10 µM with L6-myotubes [1] was 25 to 50%; in the assay with L6-myotubes [2], less than 25%.
